Reference: US20260042764A1, “COMPOSITIONS AND METHODS FOR INHIBITION OF KRAS” (TheRas, Inc., priority 2022, published 2026)

Assays:
[1] = target: T1, Avi-KRAS WT (1-169) GppNHp/RAF1 RBD-3xFLAG (52-151) (Homo sapiens, UniProt P01116); assay: Raf1-KRAS WT-GppNHP disruption HTRF assay (Biological Example 1); type: binding
T1 construct: Avi-KRAS WT (1-169)
In short: (§1)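 Compound disruption of KRAS-GppNHp/RAF1 RBD binding read by HTRF after two sequential 1 h room-temperature incubations (protein mix, then detection reagents), shaken at 700 rpm. Buffer Tris pH 7.5 with MgCl2, BSA, Tween and 10% DMSO; results given as percent activity relative to DMSO (100%).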

[2] = target: T2, Avi-KRAS G12V (1-169) GppNHp/RAF1 RBD-3xFLAG (52-151) (Homo sapiens, UniProt P01116, G12V); assay: Raf1-KRAS G12V-GppNHP disruption HTRF assay (Biological Example 1); type: binding
T2 construct: Avi-KRAS G12V (1-169)
In short: as §1

[3] = system: SW620 cells (KRAS G12V); assay: Cell-based pERK HTRF assay in SW620 cell (Biological Example 4); conditions: pERK HTRF
In short: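 SW620 seeded in RPMI/10% FBS, next day dosed 4 h (top 1 μM, half-log, 9 pts, 0.25% DMSO). Lysed, pERK by d2/Eu cryptate HTRF, 4–24 h RT, 615 nm read.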

[4] = system: GP2d cells (KRAS G12D); assay: Cell-based pERK HTRF assay in GP2d cell (Biological Example 2); conditions: GP2d (KRAS G12D) cells, pERK HTRF
In short: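 60 min compound, 0.25% DMSO, 9-pt half-log curve from 1 μM or 100 nM; DMEM/10% FBS.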

[5] = target: T3, Avi-KRAS G12R (1-169) GppNHp/RAF1 RBD-3xFLAG (52-151) (Homo sapiens, UniProt P01116, G12R); assay: Raf1-KRAS G12R-GppNHP disruption HTRF assay (Biological Example 1); type: binding
T3 construct: Avi-KRAS G12R (1-169)
In short: as §1

[6] = target: T4, Avi-KRAS G12D (1-169) GppNHp/RAF1 RBD-3xFLAG (52-151) (Homo sapiens, UniProt P01116, G12D); assay: Raf1-KRAS G12D-GppNHP disruption HTRF assay (Biological Example 1); type: binding
T4 construct: Avi-KRAS G12D (1-169)
In short: as §1

[7] = Homo sapiens, SW-620, SW620 (KRAS G12V) cells
[8] = KRAS WT, GppNHp-loaded, class symbols
[9] = KRAS G12V, GppNHp-loaded, class symbols
[10] = Homo sapiens, SW-620, SW620 (KRAS G12V) cells, class symbols
[11] = KRAS G12R, GppNHp-loaded, class symbols
[12] = KRAS G12D, GppNHp-loaded, class symbols

T2 sequence (P01116 1-169 isoform P01116-2 G12V): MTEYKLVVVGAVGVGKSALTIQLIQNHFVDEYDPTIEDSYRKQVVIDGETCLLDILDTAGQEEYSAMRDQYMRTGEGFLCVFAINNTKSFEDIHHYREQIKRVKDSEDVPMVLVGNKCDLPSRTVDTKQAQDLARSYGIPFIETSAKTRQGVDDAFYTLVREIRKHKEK
T4 sequence (P01116 1-169 isoform P01116-2 G12D): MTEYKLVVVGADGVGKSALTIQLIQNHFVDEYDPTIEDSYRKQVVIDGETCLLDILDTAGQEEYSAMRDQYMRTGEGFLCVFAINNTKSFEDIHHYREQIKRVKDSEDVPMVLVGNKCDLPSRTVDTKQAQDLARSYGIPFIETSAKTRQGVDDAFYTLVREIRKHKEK
T3 sequence (P01116 1-169 isoform P01116-2 G12R): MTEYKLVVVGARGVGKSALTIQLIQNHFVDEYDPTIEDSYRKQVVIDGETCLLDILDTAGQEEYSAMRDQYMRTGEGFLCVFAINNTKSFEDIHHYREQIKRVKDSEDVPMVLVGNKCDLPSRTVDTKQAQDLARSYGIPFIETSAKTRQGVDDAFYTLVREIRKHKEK
T1 sequence (P01116 1-169 isoform P01116-2): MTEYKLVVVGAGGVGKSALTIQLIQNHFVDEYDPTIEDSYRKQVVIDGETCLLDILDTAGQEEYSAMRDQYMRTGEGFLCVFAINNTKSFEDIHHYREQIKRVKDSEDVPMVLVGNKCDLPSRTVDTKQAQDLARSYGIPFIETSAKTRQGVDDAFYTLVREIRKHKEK

| Compound | IC50 ([1]; KRAS WT-GppNHp/RAF1 RBD HTRF) [nM] | IC50 ([2]; KRAS G12V-GppNHp/RAF1 RBD HTRF) [nM] | IC50 ([5]; KRAS G12R-GppNHp/RAF1 RBD HTRF) [nM] | IC50 ([6]; KRAS G12D-GppNHp/RAF1 RBD HTRF) [nM] | IC50 [3, 7] [nM] | IC50 ([4]; GP2d) [nM] | other results |
| --- | --- | --- | --- | --- | --- | --- | --- |
| CCC(=O)N1CC(N(C)c2nc(OCC34CCCN3CC(F)C4)nc3c(F)c(-c4ccc(F)c5sc(N)c(C#N)c45)c(C(F)(F)F)cc23)CC1C (stereo not drawn) [Compound 444] | 100 to 1000 | 1000 to 10000 | 1000 to 10000 | 100 to 1000 | – | – | IC50 ([3]; SW620 (KRAS G12V) cells): < 100 nM; IC50 [4]: < 100 nM |
| N#Cc1c(N)sc2c(F)ccc(-c3c(C(F)(F)F)cc4c(N5CCS(=N)(=O)CC5)nc(OC[C@@]56CCCN5C[C@H](F)C6)nc4c3F)c12 [Compound 297] | 100 to 1000 | 100 to 1000 | 100 to 1000 | 100 to 1000 | < 100 | < 100 | – |
| COC1CN(C(=O)N2CC[C@H](N(c3nc(OC[C@@]45CCCN4C[C@H](F)C5)nc4c(F)c(-c5ccc(F)c6sc(N)c(C#N)c56)c(C(F)(F)F)cc34)C3CC3)C2)C1 (atropisomer, axis not shown) [Compound 801] | – | – | – | – | – | – | IC50 [1, 8]: 100 to 1000 nM; IC50 [2, 9]: 100 to 1000 nM; IC50 [3, 10]: < 100 nM; IC50 ([4]; GP2d, class symbols): < 100 nM; IC50 [5, 11]: 100 to 1000 nM; IC50 [6, 12]: < 100 nM |
| CCN(c1nc(OC[C@@]23CCCN2C[C@H](F)C3)nc2c(F)c(-c3ccc(F)c4sc(N)c(C#N)c34)c(C(F)(F)F)cc12)[C@H]1CCN(C(=O)N2CC(OC(F)F)C2)C1 (atropisomer, axis not shown) [Compound 794] | – | – | – | – | – | – | IC50 [1, 8]: < 100 nM; IC50 [2, 9]: < 100 nM; IC50 [3, 10]: < 100 nM; IC50 ([4]; GP2d, class symbols): < 100 nM; IC50 [5, 11]: < 100 nM; IC50 [6, 12]: < 100 nM |
| Cc1ccc(CN(C)c2nc(OC[C@@]34CCCN3C[C@H](F)C4)nc3c(F)c(-c4ccc(F)c5sc(N)c(C#N)c45)c(C(F)(F)F)cc23)c(N)n1 (atropisomer, axis not shown) [Compound 736] | – | – | – | – | – | – | IC50 [1, 8]: 1000 to 10000 nM; IC50 [2, 9]: 100 to 1000 nM; IC50 [3, 10]: 100 to 1000 nM; IC50 ([4]; GP2d, class symbols): < 100 nM; IC50 [5, 11]: 100 to 1000 nM; IC50 [6, 12]: 100 to 1000 nM |
| N#Cc1c(N)sc2c(F)ccc(-c3c(C(F)(F)F)cc4c(N5CC6CC(C5)O6)nc(OC[C@@]56CCCN5C[C@]5(CC5(F)F)C6)nc4c3F)c12 [Compound 365] | 100 to 1000 | 100 to 1000 | 100 to 1000 | 100 to 1000 | < 100 | < 100 | – |

The next lines start with results.

| IC50 ([1]; KRAS WT-GppNHp/RAF1 RBD HTRF) [nM] | IC50 ([2]; KRAS G12V-GppNHp/RAF1 RBD HTRF) [nM] | IC50 ([5]; KRAS G12R-GppNHp/RAF1 RBD HTRF) [nM] | IC50 ([6]; KRAS G12D-GppNHp/RAF1 RBD HTRF) [nM] | IC50 [3, 7] [nM] | IC50 ([4]; GP2d) [nM] | Compound | other results |
| --- | --- | --- | --- | --- | --- | --- | --- |
| – | – | – | – | < 100 | < 100 | CC(=O)N1CCN(c2nc(OC[C@@]34CCCN3C[C@H](F)C4)nc3c(F)c(-c4ccc(F)c5sc(N)c(C#N)c45)c(C(F)(F)F)cc23)[C@@H](C)C1 [Compound 230] | IC50 ([1]; KRAS WT, GppNHp-loaded, Table 11): 100 to 1000 nM; IC50 ([2]; KRAS G12V, GppNHp-loaded, Table 11): 1000 to 10000 nM; IC50 ([5]; KRAS G12R, GppNHp-loaded, Table 11): 1000 to 10000 nM; IC50 ([6]; KRAS G12D, GppNHp-loaded, Table 11): 100 to 1000 nM |
| < 100 | < 100 | < 100 | < 100 | < 100 | < 100 | CCN(c1nc(OC[C@@]23CCCN2C[C@H](F)C3)nc2c(F)c(-c3ccc(F)c4sc(N)c(C#N)c34)c(C(F)(F)F)cc12)[C@H]1CCN(C(=O)N(C)C)C1 [Compound 395] | – |
| 100 to 1000 | 100 to 1000 | 100 to 1000 | 100 to 1000 | < 100 | < 100 | CCC(=O)N1CC[C@@H]2[C@H]1CN2c1nc(OC[C@@]23CCCN2C[C@H](F)C3)nc2c(F)c(-c3ccc(F)c4sc(N)c(C#N)c34)c(C(F)(F)F)cc12 [Compound 515] | – |
| 100 to 1000 | 100 to 1000 | < 100 | < 100 | < 100 | < 100 | CCN(c1nc(OC[C@@]23CCCN2C[C@H](F)C3)nc2c(F)c(-c3ccc(F)c4sc(N)c(C#N)c34)c(C(F)(F)F)cc12)[C@H]1C[C@@H](C)N(C(=O)OC)C1 (atropisomer, axis not shown) [Compound 557] | – |
| 1000 to 10000 | 1000 to 10000 | 1000 to 10000 | 100 to 1000 | < 100 | < 100 | CC(C)C(=O)N1CC[C@](C)(N(C)c2nc(OC[C@@]34CCCN3C[C@H](F)C4)nc3c(F)c(-c4ccc(F)c5sc(N)c(C#N)c45)c(C(F)(F)F)cc23)C1 [Compound 499] | – |
